Measurements taken from patent publication EP1000039B1 (Wyeth Holdings Corporation, priority 1997, dated 1999).
Values after ≈ are worked out from the molar mass of the structure shown.

Tests used:
[1] = target: T1, His-tagged cytoplasmic domain of EGFR (Homo sapiens, UniProt P00533); experiment: Inhibition of Epidermal Growth Factor Receptor Kinase (EGF-R) using recombinant enzyme, RR-SRC peptide phosphorylation; assay type: biochemical; settings: recombinant enzyme; average of the number of tests; read-out: IC50
T1 construct: containing the EGFR cDNA encoding amino acids 645 - 1186 preceded by Met-Ala-(His)6; Met-Ala-(His)6 (N); made in house; host or cells: Sf9 insect cells, recombinant baculovirus vHcEGFR52
T1 sequence (P00533 669-1210): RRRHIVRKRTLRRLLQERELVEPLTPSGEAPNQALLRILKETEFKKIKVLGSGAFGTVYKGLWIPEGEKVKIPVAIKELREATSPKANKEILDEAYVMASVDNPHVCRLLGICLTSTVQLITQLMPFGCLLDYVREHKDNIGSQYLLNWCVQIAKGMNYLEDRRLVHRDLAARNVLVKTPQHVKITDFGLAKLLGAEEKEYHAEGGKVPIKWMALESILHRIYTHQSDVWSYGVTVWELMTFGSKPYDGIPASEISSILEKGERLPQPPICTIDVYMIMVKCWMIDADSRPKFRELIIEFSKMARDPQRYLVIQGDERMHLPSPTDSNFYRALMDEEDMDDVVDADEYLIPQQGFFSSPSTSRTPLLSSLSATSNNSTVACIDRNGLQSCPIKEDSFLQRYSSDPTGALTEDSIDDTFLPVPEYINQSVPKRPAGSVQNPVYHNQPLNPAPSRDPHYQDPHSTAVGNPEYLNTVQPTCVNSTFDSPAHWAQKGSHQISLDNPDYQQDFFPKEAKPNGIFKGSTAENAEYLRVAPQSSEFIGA
Method: The enzyme used in this assay is the His-tagged cytoplasmic domain of EGFR. […] Sf9 cells in 100 mm plates were infected at an moi of 10 pfu/cell and cells were harvested 48 h post infection. A cytoplasmic extract was prepared using 1% Triton X-100 and applied to Ni-NTA column. After washing the column with 20 mM imidazole, HcEGFR was eluted with 250 mM imidazole (in 50 mM Na2HPO4, pH 8.0, 300 mM NaCl). Fractions collected were dialyzed against 10 mM HEPES, pH 7.0, 50 mM NaCl, 10% glycerol, 1ug/mL antipain and leupeptin and 0. 1 mM Pefabloc SC. The protein was frozen in dry ice/methanol and stored -70°C.
For the enzyme reaction, 10 uL of each inhibitor (at various concentrations) were added to each well of a 96-well plate. To this was added 3 uL of enzyme (1: 10 dilution in 10mM HEPES, pH 7.4 for final conc. of 1:120). This was allowed to sit for 10 min on ice and was followed by the addition of 5 ul peptide (80 uM final conc.), 10ul of 4X Buffer (Table A), 0.25 uL ^33P-ATP and 12 uL H2O. The reaction was allowed to run for 90 min at room temperature and was followed by spotting the entire volume on to precut P81 filter papers. The filter discs were washed 2X with 0.5% phosphoric acid and radioactivity was measured using a liquid scintillation counter.

A2780DDP = experiment: Inhibition of Cancer Cell Growth (Sulforhodamine B); assay type: cell-based, Human; settings: 48 hours exposure; for IC50: Homo sapiens, read-out: Inhibition of Cancer Cell Growth as Measured by Cell Number (IC50) A2780DDP
Method: (§1) After 48 hours exposure to test compounds, cells were fixed with trichloroacetic acid, and stained with Sulforhodamine B. After washing with trichloroacetic acid, bound dye was solubilized in 10 mM Tris base and optical density was determined using plate reader. Under conditions of the assay the optical density is proportional to the number of cells in the well. […] The test procedure is described in details by Philip Skehan et. al. J.Natl. Canc. […]

A2780S = experiment: as above; assay type: cell-based, Human; settings: 48 hours exposure; for IC50: Homo sapiens, read-out: Inhibition of Cancer Cell Growth as Measured by Cell Number (IC50) A2780S
Method: as §1

A431 = experiment: as above; assay type: cell-based, Human; settings: for IC50: Homo sapiens, A-431, 48 hours exposure, read-out: Inhibition of Cancer Cell Growth as Measured by Cell Number (IC50) A431
Method: as §1

LOX = experiment: as above; assay type: cell-based, Human; settings: 48 hours exposure; for IC50: Homo sapiens, read-out: Inhibition of Cancer Cell Growth as Measured by Cell Number (IC50) LOX
Method: as §1

MCF7 = experiment: as above; assay type: cell-based, Human; settings: 48 hours exposure; for IC50: Homo sapiens, read-out: Inhibition of Cancer Cell Growth as Measured by Cell Number (IC50) MCF7
Method: as §1

SKBR3 = experiment: as above; assay type: cell-based, Human; settings: for IC50: Homo sapiens, SK-BR-3, 48 hours exposure, read-out: Inhibition of Cancer Cell Growth as Measured by Cell Number (IC50) SKBR3
Method: as §1

SW620 = experiment: as above; assay type: cell-based, Human; settings: for IC50: Homo sapiens, SW-620, 48 hours exposure, read-out: Inhibition of Cancer Cell Growth as Measured by Cell Number (IC50) SW620
Method: as §1

MB435 = experiment: as above; assay type: cell-based, Human; settings: 48 hours exposure; for IC50: Homo sapiens, read-out: Inhibition of Cancer Cell Growth as Measured by Cell Number (IC50) MB435
Method: as §1

| IC50 [1] | IC50 (A2780DDP) | IC50 (A2780S) | IC50 (A431) | IC50 (LOX) | IC50 (MCF7) | IC50 (SKBR3) | IC50 (SW620) | IC50 (MB435) | Inhibition of Cancer Cell Growth as Measured by Cell Number (IC50) A2780DDP (A2780DDP) | Inhibition of Cancer Cell Growth as Measured by Cell Number (IC50) A2780S (A2780S) | Inhibition of Cancer Cell Growth as Measured by Cell Number (IC50) A431 (A431; 48 hours exposure) | Inhibition of Cancer Cell Growth as Measured by Cell Number (IC50) LOX (LOX) | Inhibition of Cancer Cell Growth as Measured by Cell Number (IC50) MB435 (MB435) | Inhibition of Cancer Cell Growth as Measured by Cell Number (IC50) MCF7 (MCF7) | Inhibition of Cancer Cell Growth as Measured by Cell Number (IC50) SKBR3 (SKBR3; 48 hours exposure) | Inhibition of Cancer Cell Growth as Measured by Cell Number (IC50) SW620 (SW620; 48 hours exposure) | Compound |
| --- | --- | --- | --- | --- | --- | --- | --- | --- | --- | --- | --- | --- | --- | --- | --- | --- | --- |
| 0.7 nM | 0.311 µg/mL (≈ 0.807 µM) | 0.257 µg/mL (≈ 0.667 µM) | 0.34 µg/mL (≈ 0.883 µM) | 0.386 µg/mL (≈ 1 µM) | 1.03 µg/mL (≈ 2.67 µM) | 0.306 µg/mL (≈ 0.794 µM) | 0.584 µg/mL (≈ 1.52 µM) | – | – | – | – | – | – | – | – | – | O=C(Nc1ccc2ncnc(Nc3cccc(Br)c3)c2c1)C1CO1 (stereo not drawn) [Example 81, Oxirane-2-carboxylic acid [4-(3-bromo-phenylamino)-quinazolin-6-yl]-amide] |
| 8 nM | 2.5 µg/mL (≈ 5.67 µM) | 0.7 µg/mL (≈ 1.59 µM) | 2.8 µg/mL (≈ 6.35 µM) | 0.9 µg/mL (≈ 2.04 µM) | 8.7 µg/mL (≈ 19.7 µM) | 1.2 µg/mL (≈ 2.72 µM) | 1.8 µg/mL (≈ 4.08 µM) | 5.7 µg/mL (≈ 12.9 µM) | – | – | – | – | – | – | – | – | COCOCC#CC(=O)Nc1ccc2ncnc(Nc3cccc(Br)c3)c2c1 [Example 57, 4-Methoxymethoxy-but-2-ynoic acid [4-(3-bromo-phenylamino)-quinazolin-6-yl]-amide] |
| – | – | – | – | – | – | – | – | – | 43 µg/mL | 22 µg/mL | 0.01 µg/mL | 46 µg/mL | 45 µg/mL | 59 µg/mL | <0.01 µg/mL | 52 µg/mL | 4-Diethylamino-but-2-enoic acid [4-(3-bromo-phenylamino)-quinazolin-6-yl]-amide [Example 67] |
| – | 3 µg/mL (≈ 6.68 µM) | 1.77 µg/mL (≈ 3.94 µM) | 1.07 µg/mL (≈ 2.38 µM) | 3.1 µg/mL (≈ 6.9 µM) | 5.04 µg/mL (≈ 11.2 µM) | – | 3.65 µg/mL (≈ 8.12 µM) | – | – | – | – | – | – | – | – | – | CSSC(C)C(=O)Nc1ccc2ncnc(Nc3cccc(Br)c3)c2c1 (stereo not drawn) [Example 73, N-[4-(3-Bromo-phenylamino)-quinazolin-6-yl]-2-methyldisulfanyl-propionamide] |
| 0.31 nM | 0.06 µg/mL (≈ 0.146 µM) | 0.12 µg/mL (≈ 0.292 µM) | 0.05 µg/mL (≈ 0.122 µM) | 0.02 µg/mL (≈ 0.0486 µM) | 0.5 µg/mL (≈ 1.22 µM) | 0.06 µg/mL (≈ 0.146 µM) | 0.06 µg/mL (≈ 0.146 µM) | 0.8 µg/mL (≈ 1.95 µM) | – | – | – | – | – | – | – | – | COCC#CC(=O)Nc1ccc2ncnc(Nc3cccc(Br)c3)c2c1 [Example 23, 4-Methoxy-but-2-ynoic acid [4-(3-bromo-phenylamino)-quinazolin-6-yl]-amide] |
| – | 6.5 µg/mL (≈ 14.1 µM) | 5.2 µg/mL (≈ 11.3 µM) | 3.2 µg/mL (≈ 6.92 µM) | 5.3 µg/mL (≈ 11.5 µM) | 42 µg/mL (≈ 90.9 µM) | 0.3 µg/mL (≈ 0.649 µM) | 8.1 µg/mL (≈ 17.5 µM) | 13 µg/mL (≈ 28.1 µM) | – | – | – | – | – | – | – | – | O=C(C=CCBr)Nc1ccc2ncnc(Nc3cccc(Br)c3)c2c1 [Example 65, 4-Bromo-but-2-enoic acid [4-(3-bromo-phenylamino)-quinazolin-6-yl]-amide] |
| 2 nM | 0.6 µg/mL (≈ 1.17 µM) | 0.2 µg/mL (≈ 0.39 µM) | 0.01 µg/mL (≈ 0.0195 µM) | 0.5 µg/mL (≈ 0.976 µM) | – | < 0.01 µg/mL | 0.4 µg/mL (≈ 0.781 µM) | 0.7 µg/mL (≈ 1.37 µM) | – | – | – | – | – | – | – | – | COCCN(CC#CC(=O)Nc1ccc2ncnc(Nc3cccc(Br)c3)c2c1)CCOC [Example 31, 4-[Bis-(2-methoxy-methyl]-amino]-but-2-ynoic acid [4-(3-bromophenylamino)-quinazolin-6-yl]-amide] |
| 35 nM | – | – | – | – | – | – | – | – | – | – | – | – | – | – | – | – | CN1CCN(CC#CC(=O)Nc2ccc3ncnc(Nc4cccc(Br)c4)c3c2)CC1 [Example 34, 4-(4-Methyl-piperazin-1-yl]-but-2-ynoic acid [4-(3-bromophenylamino)-quinazolin-6-yl]-amide] |
| 4.5 nM | – | – | – | – | – | – | – | – | – | – | – | – | – | – | – | – | COCCN(C)CC#CC(=O)Nc1ccc2ncnc(Nc3cccc(Br)c3)c2c1 [Example 37] |

| Compound | IC50 [1] | IC50 (A2780DDP) | IC50 (A2780S) | IC50 (A431) | IC50 (LOX) | IC50 (MCF7) | IC50 (SKBR3) | IC50 (SW620) | IC50 (MB435) | Inhibition of Cancer Cell Growth as Measured by Cell Number (IC50) A2780DDP (A2780DDP) | Inhibition of Cancer Cell Growth as Measured by Cell Number (IC50) A2780S (A2780S) | Inhibition of Cancer Cell Growth as Measured by Cell Number (IC50) A431 (A431; 48 hours exposure) | Inhibition of Cancer Cell Growth as Measured by Cell Number (IC50) LOX (LOX) | Inhibition of Cancer Cell Growth as Measured by Cell Number (IC50) MB435 (MB435) | Inhibition of Cancer Cell Growth as Measured by Cell Number (IC50) MCF7 (MCF7) | Inhibition of Cancer Cell Growth as Measured by Cell Number (IC50) SKBR3 (SKBR3; 48 hours exposure) | Inhibition of Cancer Cell Growth as Measured by Cell Number (IC50) SW620 (SW620; 48 hours exposure) |
| --- | --- | --- | --- | --- | --- | --- | --- | --- | --- | --- | --- | --- | --- | --- | --- | --- | --- |
| CN(C)CC=CC(=O)Nc1ccc2ncnc(Nc3cccc(Br)c3)c2c1 [Example 66, 4-Dimethylamino-but-2-enoic acid [4-(3-bromo-phenylamino)-quinazolin-6-yl]-amide] | – | 5.1 µg/mL (≈ 12 µM) | 3.9 µg/mL (≈ 9.15 µM) | 0.007 µg/mL (≈ 0.0164 µM) | 4.9 µg/mL (≈ 11.5 µM) | 7.6 µg/mL (≈ 17.8 µM) | < 0.01 µg/mL | 5.1 µg/mL (≈ 12 µM) | 5.4 µg/mL (≈ 12.7 µM) | – | – | – | – | – | – | – | – |
